# Assay results as given in patent US20240043384A1, “INHIBITORS OF PU.1 FOR THE TREATMENT OF DISEASE” (Board of Regents, The University of Texas System, priority 2021, published 2024).
# Tested on: THP-1 CD14
# Assay: THP-1 CD14 Screening Assay
# Type: cell-based
# Conditions: Homo sapiens, THP-1, 72 h, THP-1 cells treated with PMA and compound (5-point 10-fold dilution), human CD14 ELISA on media
# Protocol: THP-1 CD14 Screening Assay Protocol:
# 5×10^4 THP-1 cells were plated per well in a tissue culture-treated 96-well plate. At the time of plating, cells were treated with a final concentration of […] PMA and 0.04% DMSO vehicle, concominant with compounds in a 5-point 10-fold dilution per compound. Cells were treated with PMA and DMSO as a control for differentiation without compound treatment, and with only DMSO as a control for no differentiation and no compound treatment. 500 nM IACS-71432 was added as a control compound across all assay plates.
# After incubation at 37° C./5% CO2 for 72 hr, media was collected from the cells and the screening assay was performed using the commercially-available human CD14 SimpleStep ELISA kit from Abcam, according to the following protocol: • 1) ELISA kits were taken out to equilibrate to rt. • 2) Following the protocol listed in the kit, standards were prepared as 1:1 dilutions from 2 ng/ml. • 3) Following the protocol listed in the kit, antibody cocktail was prepared (the volume is contingent on the number of wells required). • 4) 50 μl of standards were added to the appropriate wells, thoroughly mizing the standards before adding to each well. • 5) 25 μl of Sample Diluent (from kit) was added to all sample wells. • 6) Cell plates were centrifuged for 5 min at 300 rcf, with slow acceleration and slow deceleration. • 7) 25 μl of media from cell plates was transferred to assay plates containing standards. • 8) 50 μl of antibody cocktail was added to all of the wells, standards and samples. • 9) Assay plates were sealed tightly and incubated on the plate shaker at 400 rpm for 1 hr at rt. • 10) Wash buffer was prepared following the protocol listed in the kit. • 11) After the hour incubation, assay plates were washed 5 times using 200 μl wash buffer per well per wash. • 12) 100 μl of TMB substrate was added to each well in the dark and incubated on the shaker for 3-4.min, at which point color development was monitored to ensure a robust signal for detection but to avoid oversaturation of signal, for no longer than 10 min. • 13) The absorbance at 607 nm was read on a Perkin Elmer Envision plate reader. • 14) Data was processed using Microsoft Excel and GraphPad Prism.
row,IC50 [µM],Structure (SMILES)
1,< 0.005,"Cc1n[nH]c2cc(-c3ccc(S(=O)(=O)NCc4ccncc4)cc3)ccc12 [Example 59, 4-(3-methyl-1H-indazol-6-yl)-N-(pyridin-4-ylmethyl)-benzenesulfonamide]"
2,0.005 to 0.1,"O=c1[nH]c2cc(-c3ccc(S(=O)(=O)NCc4ccncc4)cc3)ccc2o1 [Example 61, 4-(2-oxo-2,3-dihydro-benzo[d]oxazol-5-yl)-N-(pyridin-4-ylmethyl)-benzenesulfonamide]"
3,0.1 to 0.5,"O=c1[nH]c2ccc(-c3ccc(S(=O)(=O)NCc4ccncc4)cc3)cc2o1 [Example 62, 4-(2-oxo-2,3-dihydro-benzo[d]oxazol-6-yl)-N-(pyridin-4-ylmethyl)-benzenesulfonamide]"
4,< 0.005,"Cn1ncc2c(NS(=O)(=O)c3ccc(C4CCCCC4)cc3)cccc21 [Example 63, 4-cyclohexyl-N-(1-methyl-1H-indazol-4-yl)benzenesulfonamide]"
